Counter-ions that a name gives are not always drawn. Like-named read-outs stand apart in the source and are kept apart here.
Assays:
[1] = molecular target: T1, human FXR ligand binding domain (LBD) (Homo sapiens, UniProt Q96RI1); experiment: FXR Cofactor Binding Assay (TRF, SRC-1 peptide recruitment); format: biochemical; conditions: read-out: Activity (pEC50) (converted)
T1 construct: polyhistidine (pRSET-A vector leader) (N); made in house; host or cells: E. coli BL21 (DE3), pRSET-A vector
T1 sequence (Q96RI1 237-472 isoform Q96RI1-2): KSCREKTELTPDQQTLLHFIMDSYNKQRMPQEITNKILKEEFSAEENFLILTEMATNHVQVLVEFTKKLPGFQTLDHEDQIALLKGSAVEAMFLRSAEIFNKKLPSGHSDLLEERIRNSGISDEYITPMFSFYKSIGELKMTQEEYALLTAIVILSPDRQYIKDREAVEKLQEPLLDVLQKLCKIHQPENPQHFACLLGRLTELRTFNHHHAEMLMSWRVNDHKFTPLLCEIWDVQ
T1 sequence (Q15788 676-700 partner): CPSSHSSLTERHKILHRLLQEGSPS
From the text: Determination of a ligand mediated cofactor peptide interaction to quantify ligand binding to the nuclear receptor Farnasoid X Receptor (FXR). The method measures the ability of putative ligands to modulate the interaction between the purified bacterial expressed human FXR ligand binding domain (LBD) and a synthetic biotinylated peptide based on residues 676-700 of steroid receptor coactivator-1 (SRC-1) (LXXLL-containing domain-2 where L is the amino acid leucine and X indicates any other amino acid (LCD2), 676-700). The sequence of the SRC-1 peptide used is as published in Iannone, M. A. et al, Cytometry 44:326-337 (2001) where the N-terminus was biotinylated (B) and the C-terminus was amidated. Detection of the associated complex was measured by time resolved fluorescence (TRF). The purified LBD of FXR was labeled with biotin then mixed with stoichiometric amounts of allophycocyanin (APC) labeled streptavidin (Molecular Probes). The biotinylated peptide was then mixed with a ½ stoichiometric amount of europium labeled streptavidin (Wallac Inc). Each was then blocked with a 5 fold excess of biotin and allowed to equilibrate for 15 min. Equimolar amounts of receptor and peptide were mixed together and were allowed to equilibrate for at least 30 min prior to the addition to either a variable or constant concentrations of the sample for which the affinity is to be determined. After equilibration, the time-resolved fluorescent signal was quantitated using a fluorescent plate reader. The affinity of the test compound was estimated from a plot of fluorescence versus concentration of test compound added.
A basal level of FXR: peptide formation is observed in the absence of added ligand. Ligands that promote the complex formation induce a concentration-dependent increase in time-resolved fluorescent signal. Compounds which bind equally well to both non-/un-complexed FXR and to the FXR: peptide complex would be expected to give no change in signal, whereas ligands which bind preferentially to the non-/un-complexed receptor would be expected to induce a concentration-dependent decrease in the observed signal.
Human FXR Ligand Binding Domain (FXR LBD) was expressed in E. coli strain BL21 (DE3) as an amino-terminal polyhistidine tagged fusion protein. Expression was under the control of an isopropyl-β-D-thiogalactopyranoside (IPTG) inducible T7 promoter. DNA encoding this recombinant protein is subcloned into the pRSET-A expression vector (Invitrogen). The coding sequence of Human FXR LBD was derived from Genbank accession number U 68233 (amino acids 237 to 472).
Ten-liter fermentation batches were grown in Rich PO4 media with 0.1 mg/mL Ampicillin at 25° C. for 12 hours, cooled to 9° C. and held at that temperature for 36 hours to a density of OD600=14. At this cell density, 0.25 mM IPTG is added and induction proceeded for 24 hours at 9° C., to a final OD600=16. Cells are harvested by centrifugation (20 minutes, 3500× gravity, 4° C.), and concentrated cell slurries were stored in phosphate buffered saline (PBS) at […].
Routinely, 30-40 g cell paste (equivalent to 2-3 liters of the fermentation batch) was resuspended in 200-250 mL Tris buffered saline (TBS), pH 7.2 (25 mM Tris-Hydroxymethylamino methane (Tris), 150 mM NaCl). Cells were lysed by passing 3 times through a French Press and cell debris was removed by centrifugation (30 minutes, 20,000× gravity, 4° C.). The cleared supernatant was filtered through course pre-filters, and TBS, pH 7.2, 500 mM imidazole was added to obtain a final imidazole concentration of 50 mM. This lysate was loaded onto a column (6×8 cm) packed with Sepharose [Ni^++ charged] Chelation resin (Pharmacia) and pre-equilibrated with TBS pH 7.2/50 mM imidazole. After washing to baseline absorbance with equilibration buffer, the column was washed with one column volume of TBS pH 7.2 containing 90 mM imidazole. FXR LBD was eluted directly with 365 mM imidazole. […]

[2] = test system: rodent models of hepatic fibrosis; conditions: multiple rodent models; cited from earlier work
[3] = test system: hepatic stellate cells (HSC); conditions: cultured HSCs; cited from earlier work
[4] = test system: high-fat diet induced insulin resistant, glucose intolerant, and obese mouse model; experiment: High-fat diet induced insulin resistant, glucose intolerant, obese mouse model; format: in vivo; conditions: C57BL mice, 100 mg/kg twice a day orally
From the text: Compounds of formula (I) are also useful for the treatment of diabetes mellitus in a subject, such as a mammal, particularly a human. For example, the compounds of formula (I) are useful for the treatment of type 2 diabetes. The effects of an FXR agonist, GW4064, on body weight, glucose tolerance, serum glucose, serum insulin, serum triglyceride, and liver triglyceride contents via oral administration have been observed in an high-fat diet induced insulin resistant, glucose intolerant, and obese mouse model. Male 20 to 25 g C57BL mice (Charles River, Indianapolis, Ind.) were housed at 72° F. and 50% relative humidity with a 12 h light and dark cycle and fed with standard rodent chow (Purina 5001, Harlan Teklad, Indianapolis, Ind.) or a high-fat diet (TD93075, Harlan Teklad, Indianapolis, Ind.) for seven weeks. After two weeks, mice on high-fat diet were randomized to vehicle or treatment groups. There were no significant difference in body weight, body fat mass, serum glucose and insulin, and area under the curve (AUC) for glucose in glucose tolerance test (GTT) between the vehicle group and the treatment group. Starting from the fourth week, mice were given either vehicle or GW4064 (100 mg/kg) twice a day orally. Mice on the standard rodent chow were also given vehicle as a control. At the end of the third week of compound treatment, a GTT was performed and body composition was measured using the quantitative magnetic resonance (QMR) method. […] Blood glucose during GTT was measured using Bayer Glucometer Elite® XL. Serum chemistry levels were measured using the Instrumentation Laboratory Ilab600™ clinical chemistry analyzer (Instrumentation Laboratory, Boston, Mass.). Liver triglyceride contents were measured using the methanolic-KOH saponification method and a triglyceride assay kit (GPO-TRINDER, Sigma Diagnostics, St. Louis, Mo.). […] It is believed that the result may have been due to a decrease in fat mass.

[5] = test system: mice on a lithogenic diet; conditions: cited from earlier work
[6] = test system: bile duct-ligated mouse model of cholestasis and intestinal bacterial overgrowth; conditions: cited from earlier work
[7] = protocol ⋄: 0.5 μL of test compound, final assay volume 25 μL
[8] = protocol †: 0.1 μL of test compound, final assay volume 10 μL

SMILES	EC50 [1, 7]	EC50 [1, 8]	other results
CC(C)c1onc(-c2c(Cl)cccc2Cl)c1COc1ccc(-c2ccc3c(C(=O)O)cccc3c2)cc1 [Example 1, 6-[4-({[3-(2,6-Dichlorophenyl)-5-(1-methylethyl)-4-isoxazolyl]methyl}oxy)phenyl]-1-naphthoic Acid Sodium Salt]	< 0.1 µM	< 0.1 µM	–
O=C(O)c1cccc2cc(-c3ccc(OCc4c(-c5c(Cl)cccc5Cl)noc4C4CCC4)cc3)ccc12 [Example 3, 6-[4-({[5-cyclobutyl-3-(2,6-dichlorophenyl)-4-isoxazolyl]methyl}oxy)phenyl]-1-naphthalenecarboxylic acid]	–	0.102 to 1 µM	–
CC(C)c1onc(CCc2c(Cl)cccc2Cl)c1COc1ccc(-c2ccc3c(C(=O)O)cccc3c2)cc1 [Example 5, 6-[4-({[3-[2-(2,6-dichlorophenyl)ethyl]-5-(1-methylethyl)-4-isoxazolyl]methyl}oxy)phenyl]-1-naphthalenecarboxylic acid]	< 0.1 µM	0.102 to 1 µM	–
CC(C)c1onc(-c2c(Cl)cccc2Cl)c1COc1ccc(-c2ccc3c(C(=O)O)cccc3c2)c(Cl)c1 [Example 2, 6-[2-Chloro-4-({[3-(2,6-dichlorophenyl)-5-(1-methylethyl)-4-isoxazolyl]methyl}oxy)phenyl]-1-naphthalenecarboxylic acid]	–	0.102 to 1 µM	–
CC(C)c1onc(-c2c(Cl)cccc2Cl)c1COc1ccc(-c2ccc3cc(C(=O)O)ccc3c2)cc1 [Example 6, 6-(4-{[3-(2,6-dichlorophenyl)-5-isopropylisoxazol-4-yl]methoxy}phenyl)-2-naphthoic acid]	–	0.102 to 1 µM	–
CC(C)c1onc(CCc2c(Cl)cccc2Cl)c1COc1ccc(-c2ccc3cccc(C(=O)O)c3c2)cc1 [Example 11, 7-[4-({[3-[2-(2,6-dichlorophenyl)ethyl]-5-(1-methylethyl)-4-isoxazolyl]methyl}oxy)phenyl]-1-naphthalenecarboxylic acid]	–	1.02 to 10 µM	–
CC(C)c1onc(Cc2c(Cl)cccc2Cl)c1COc1ccc(-c2ccc3c(C(=O)O)cccc3c2)cc1 [Example 4, 6-[4-({[3-[(2,6-dichlorophenyl)methyl]-5-(1-methylethyl)-4-isoxazolyl]methyl}oxy)phenyl]-1-naphthalenecarboxylic acid]	0.102 to 1 µM	–	–
CC(C)c1onc(CCc2c(Cl)cccc2Cl)c1COc1ccc(-c2ccc3ccc(C(=O)O)cc3c2)cc1 [Example 9, 7-[4-({[3-[2-(2,6-dichlorophenyl)ethyl]-5-(1-methylethyl)-4-isoxazolyl]methyl}oxy)phenyl]-2-naphthalenecarboxylic acid]	–	0.102 to 1 µM	–
CC(C)c1onc(-c2c(Cl)cccc2Cl)c1COc1ccc(-c2ccc3ccc(C(=O)O)cc3c2)cc1 [Example 8, 7-[4-({[3-(2,6-dichlorophenyl)-5-(1-methylethyl)-4-isoxazolyl]methyl}oxy)phenyl]-2-naphthalenecarboxylic acid]	–	0.102 to 1 µM	–
CC(C)c1onc(-c2c(Cl)cccc2Cl)c1COc1ccc(-c2ccc3cccc(C(=O)O)c3c2)cc1 [Example 10, 7-[4-({[3-(2,6-dichlorophenyl)-5-(1-methylethyl)-4-isoxazolyl]methyl}oxy)phenyl]-1-naphthalenecarboxylic acid]	–	1.02 to 10 µM	–
CC[C@H]1[C@@H](O)[C@@H]2[C@H](CC[C@]3(C)[C@@H]([C@H](C)CCC(=O)O)CC[C@@H]23)[C@@]2(C)CC[C@@H](O)C[C@@H]12 [Example 6EtCDCA, 6-ethyl-chenodeoxycholic acid]	–	–	hepatic fibrosis [2]: prevent development and promote resolution of hepatic fibrosis; expression of fibrotic markers such as α-smooth muscle actin and α1(I)collagen [3]: decreased expression of fibrotic markers
CC(C)c1onc(-c2c(Cl)cccc2Cl)c1COc1ccc(/C=C/c2cccc(C(=O)O)c2)c(Cl)c1 [GW4064]	–	–	high-fat diet induced body weight gain [4]: reduced the high-fat diet induced body weight gain; glucose tolerance (GTT) ([4]; end of third week of treatment): appeared to improve glucose tolerance; liver triglyceride content ([4]; fourth week of treatment): reduced liver triglyceride content; serum glucose ([4]; fourth week of treatment): decreased; serum insulin ([4]; fourth week of treatment): decreased; serum triglyceride ([4]; fourth week of treatment): decreased; effect on cholesterol crystal formation in FXR null mice ([5]; FXR null mice): lost in FXR null mice; formation of cholesterol crystals in the bile ([5]; mice on a lithogenic diet): prevented the formation of cholesterol crystals in the bile; effect on translocation of bacteria in FXR null mice ([6]; FXR null mice): lost in FXR null mice; bacterial overgrowth ([6]; bile duct-ligated mice): decreased bacterial overgrowth; mucosal barrier ([6]; bile duct-ligated mice): improved mucosal barrier; translocation of bacteria to mesenteric lymph nodes ([6]; bile duct-ligated mice): decreased translocation of bacteria to mesenteric lymph nodes

More lines, main results first:

EC50 [1, 7]	EC50 [1, 8]	SMILES	other results
1.02 to 10 µM	–	CC(C)c1onc(-c2c(Cl)cccc2Cl)c1COc1ccc(-c2ccc3c(C#N)cccc3c2)cc1 [Example 12b, 6-[4-({[3-(2,6-dichlorophenyl)-5-(1-methylethyl)-4-isoxazolyl]methyl}oxy)phenyl]-1-naphthalenecarbonitrile]	–
0.102 to 1 µM	–	CC(C)c1onc(-c2c(Cl)cccc2Cl)c1COc1ccc(-c2ccc3c(-c4nn[nH]n4)cccc3c2)cc1 [Example 12c, 5-{6-[4-({[3-(2,6-dichlorophenyl)-5-(1-methylethyl)-4-isoxazolyl]methyl}oxy)phenyl]-1-naphthalenyl}-1H-tetrazole]	–
1.02 to 10 µM	–	CC(C)c1onc(-c2c(Cl)cccc2Cl)c1COc1ccc(-c2ccc3c(C(N)=O)cccc3c2)cc1 [Example 12a, 6-[4-({[3-(2,6-dichlorophenyl)-5-(1-methylethyl)-4-isoxazolyl]methyl}oxy)phenyl]-1-naphthalenecarboxamide]	–
